Measured values taken from patent publication US8871753B2, “Macrocyclic compounds and their use as kinase inhibitors” (Incyte Corporation, priority 2008, dated 2014).
Where a name gives a salt, the structure may show the parent alone. Read-outs that look alike come from different tables or passages of the source. Each block holds one molecule with its values, some of them ahead of it.

How the values were obtained:
Format in all cases: biochemical
[1] = target: T1, human JAK2 (a.a. 828-1132) (Homo sapiens, UniProt O60674); experiment: In vitro JAK kinase assay (HTRF, phosphorylation of a biotinylated peptide), JAK2
T1 construct: JAK2 (a.a. 828-1132); His tag (N); made in house; host or cells: insect cells (baculovirus)
T1 sequence (O60674 828-1132): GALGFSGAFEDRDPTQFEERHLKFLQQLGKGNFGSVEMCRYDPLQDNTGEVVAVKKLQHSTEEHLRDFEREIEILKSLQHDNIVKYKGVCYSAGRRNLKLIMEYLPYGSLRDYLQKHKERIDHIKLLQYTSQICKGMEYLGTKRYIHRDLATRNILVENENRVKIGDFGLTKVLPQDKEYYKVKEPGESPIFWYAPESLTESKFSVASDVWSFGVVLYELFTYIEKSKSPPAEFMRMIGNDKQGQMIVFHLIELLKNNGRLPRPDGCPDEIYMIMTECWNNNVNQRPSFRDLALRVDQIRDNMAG
Summary of the method: (§1)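 Kinase activity was measured as phosphorylation of a biotinylated peptide, with ATP at 90 μM for JAK1, 30 μM for JAK2 and 3 μM for JAK3. Reactions ran 1 hr at room temperature, were stopped with EDTA plus SA-APC and Eu-Py20, and were read by HTRF after 40 minutes of antibody binding.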

[2] = target: T2, human JAK1 (a.a. 837-1142) (Homo sapiens, UniProt P23458); experiment: In vitro JAK kinase assay (HTRF, phosphorylation of a biotinylated peptide), JAK1; conditions: read-out: JAK1 IC50
T2 construct: human JAK1 (a.a. 837-1142); His tag (N); made in house; host or cells: insect cells (baculovirus)
T2 sequence (P23458 849-1154): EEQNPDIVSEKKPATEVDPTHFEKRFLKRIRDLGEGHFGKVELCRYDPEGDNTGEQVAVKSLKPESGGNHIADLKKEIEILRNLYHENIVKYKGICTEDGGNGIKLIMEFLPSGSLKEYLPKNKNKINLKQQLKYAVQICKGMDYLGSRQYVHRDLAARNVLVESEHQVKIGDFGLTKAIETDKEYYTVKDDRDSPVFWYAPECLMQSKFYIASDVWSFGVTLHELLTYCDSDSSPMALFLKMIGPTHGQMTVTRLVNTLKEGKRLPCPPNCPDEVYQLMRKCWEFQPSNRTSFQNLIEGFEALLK
Summary of the method: as §1

[3] = target: T3, Recombinant Human Anaplastic Lymphoma Kinase (Homo sapiens, UniProt Q9UM73); experiment: ALK HTRF kinase assay; conditions: for IC50: Table B1, cells without percent sign
T3 construct: purchased Invitrogen, Carlsbad, Calif
T3 sequence (Q9UM73 19-1620): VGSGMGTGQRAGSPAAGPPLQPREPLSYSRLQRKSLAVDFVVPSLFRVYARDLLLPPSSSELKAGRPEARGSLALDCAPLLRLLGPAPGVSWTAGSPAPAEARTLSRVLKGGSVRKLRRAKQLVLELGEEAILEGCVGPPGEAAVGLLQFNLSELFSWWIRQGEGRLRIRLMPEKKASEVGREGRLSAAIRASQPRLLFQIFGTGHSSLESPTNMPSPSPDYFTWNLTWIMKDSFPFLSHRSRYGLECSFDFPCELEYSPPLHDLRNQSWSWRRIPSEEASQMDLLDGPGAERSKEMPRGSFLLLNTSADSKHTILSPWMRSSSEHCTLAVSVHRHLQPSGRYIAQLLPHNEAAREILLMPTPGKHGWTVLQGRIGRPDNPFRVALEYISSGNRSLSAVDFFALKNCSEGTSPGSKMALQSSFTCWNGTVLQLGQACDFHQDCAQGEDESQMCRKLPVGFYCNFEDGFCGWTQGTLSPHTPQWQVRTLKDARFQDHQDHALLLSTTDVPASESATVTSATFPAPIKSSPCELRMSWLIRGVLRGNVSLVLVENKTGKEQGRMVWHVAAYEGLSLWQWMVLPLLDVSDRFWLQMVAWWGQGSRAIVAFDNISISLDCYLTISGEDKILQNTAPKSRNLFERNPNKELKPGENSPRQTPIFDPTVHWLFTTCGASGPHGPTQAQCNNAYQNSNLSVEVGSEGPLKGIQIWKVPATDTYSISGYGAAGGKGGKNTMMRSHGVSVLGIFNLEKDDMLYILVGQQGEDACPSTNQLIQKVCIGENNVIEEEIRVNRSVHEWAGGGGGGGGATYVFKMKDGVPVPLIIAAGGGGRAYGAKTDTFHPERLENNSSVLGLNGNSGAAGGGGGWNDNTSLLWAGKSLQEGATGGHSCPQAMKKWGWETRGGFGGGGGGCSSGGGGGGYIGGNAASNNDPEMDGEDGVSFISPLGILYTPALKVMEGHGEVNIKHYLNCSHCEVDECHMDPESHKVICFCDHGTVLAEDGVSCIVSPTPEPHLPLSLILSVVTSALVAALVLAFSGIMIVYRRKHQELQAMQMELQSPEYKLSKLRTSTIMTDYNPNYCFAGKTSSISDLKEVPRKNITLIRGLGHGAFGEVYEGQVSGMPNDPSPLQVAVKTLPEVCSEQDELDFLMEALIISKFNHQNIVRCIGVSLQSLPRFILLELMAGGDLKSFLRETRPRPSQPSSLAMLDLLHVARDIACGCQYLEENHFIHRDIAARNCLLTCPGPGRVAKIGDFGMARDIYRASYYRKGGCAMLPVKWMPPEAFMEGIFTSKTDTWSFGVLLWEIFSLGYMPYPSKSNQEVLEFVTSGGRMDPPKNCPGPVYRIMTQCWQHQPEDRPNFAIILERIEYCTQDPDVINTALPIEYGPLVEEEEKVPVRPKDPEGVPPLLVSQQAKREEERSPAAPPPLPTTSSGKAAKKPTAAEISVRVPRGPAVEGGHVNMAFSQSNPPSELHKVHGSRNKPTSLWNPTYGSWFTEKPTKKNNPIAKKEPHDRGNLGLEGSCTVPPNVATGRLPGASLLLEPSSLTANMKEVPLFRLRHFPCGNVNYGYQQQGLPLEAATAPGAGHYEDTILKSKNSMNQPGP
From the text: Materials: Recombinant Human Anaplastic Lymphoma Kinase was purchased from Invitrogen, Carlsbad, Calif. Peptide substrate (Biotin-[…]-amide) was custom synthesized at EZBiolab, Westfield, Ind. Streptavidin conjugated SureLight-Allophycocyania and LANCE Eu-W1024 labeled anti-phosphotyrosine antibody were from Perkin-Elmer, Boston, Mass. Microplates were from Corning Inc., Acton, Mass. All other reagents were from Sigma, St. Louis, Mo.
Plates were read in Fusion α-FP instrument (Perkin-Elmer). […] Signal=Bottom+(Top−Bottom)/(1+10^((Log(IC50)−Log [I])*Hill Slope) Bottom and Top refer to the post and pre-transition baselines, respectively.

TYK2 = TYK2 (Homo sapiens, UniProt P29597); experiment: TYK2 kinase inhibition (Table A1)
TYK2, sequence (P29597 whole entry): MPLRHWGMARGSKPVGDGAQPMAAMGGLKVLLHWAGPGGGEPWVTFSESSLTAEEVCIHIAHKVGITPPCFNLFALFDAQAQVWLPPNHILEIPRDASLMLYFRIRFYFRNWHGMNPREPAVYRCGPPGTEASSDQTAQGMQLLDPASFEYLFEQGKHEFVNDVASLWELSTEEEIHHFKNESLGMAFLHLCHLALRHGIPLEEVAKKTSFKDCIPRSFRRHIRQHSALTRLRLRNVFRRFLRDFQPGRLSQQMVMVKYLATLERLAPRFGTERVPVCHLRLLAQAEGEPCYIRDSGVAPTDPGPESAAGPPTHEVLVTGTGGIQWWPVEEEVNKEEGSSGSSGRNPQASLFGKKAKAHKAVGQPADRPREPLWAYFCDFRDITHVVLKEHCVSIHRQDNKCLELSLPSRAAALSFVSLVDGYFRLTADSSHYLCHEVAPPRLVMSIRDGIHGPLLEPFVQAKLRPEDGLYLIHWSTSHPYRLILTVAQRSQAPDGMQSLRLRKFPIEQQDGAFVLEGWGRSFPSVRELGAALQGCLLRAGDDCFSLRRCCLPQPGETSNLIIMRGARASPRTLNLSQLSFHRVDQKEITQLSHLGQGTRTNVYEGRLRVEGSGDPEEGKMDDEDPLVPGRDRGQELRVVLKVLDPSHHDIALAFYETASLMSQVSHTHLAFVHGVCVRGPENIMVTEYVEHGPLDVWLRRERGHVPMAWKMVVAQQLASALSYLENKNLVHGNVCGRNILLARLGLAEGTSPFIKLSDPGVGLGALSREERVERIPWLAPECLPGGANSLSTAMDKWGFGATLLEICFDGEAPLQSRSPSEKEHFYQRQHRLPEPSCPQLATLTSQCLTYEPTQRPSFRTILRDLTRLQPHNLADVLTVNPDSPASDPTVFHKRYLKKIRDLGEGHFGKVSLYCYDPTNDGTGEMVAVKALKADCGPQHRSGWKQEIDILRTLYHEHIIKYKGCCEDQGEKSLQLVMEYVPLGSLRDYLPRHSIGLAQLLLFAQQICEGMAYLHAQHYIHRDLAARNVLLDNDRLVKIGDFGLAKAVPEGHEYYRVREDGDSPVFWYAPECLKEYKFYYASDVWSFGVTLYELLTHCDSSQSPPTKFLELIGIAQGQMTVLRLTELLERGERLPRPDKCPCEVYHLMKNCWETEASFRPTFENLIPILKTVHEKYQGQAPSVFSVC

[4] = target: T4, human JAK3 (a.a. 781-1124) (Homo sapiens, UniProt P52333); experiment: In vitro JAK kinase assay (HTRF, phosphorylation of a biotinylated peptide), JAK3
T4 construct: JAK3 (a.a. 781-1124); His tag (N); made in house; host or cells: insect cells (baculovirus)
T4 sequence (P52333 781-1124): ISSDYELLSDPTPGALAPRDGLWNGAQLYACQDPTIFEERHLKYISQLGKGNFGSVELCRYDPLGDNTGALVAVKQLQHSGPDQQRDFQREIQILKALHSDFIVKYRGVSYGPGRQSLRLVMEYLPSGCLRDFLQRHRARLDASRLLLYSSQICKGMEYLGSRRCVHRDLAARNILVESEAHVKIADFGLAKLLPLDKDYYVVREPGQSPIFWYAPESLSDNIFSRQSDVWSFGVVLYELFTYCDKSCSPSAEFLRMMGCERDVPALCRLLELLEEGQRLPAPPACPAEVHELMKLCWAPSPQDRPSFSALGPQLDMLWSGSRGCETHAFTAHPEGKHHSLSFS
Summary of the method: as §1

[5] = method AA1 (30 μM ATP) or AA2 (1000 μM ATP), not stated per value
[6] = method AA1 (90 μM ATP) or AA2 (1000 μM ATP), not stated per value
[7] = compound at 500 nM or 1 mM, 90 μM ATP
[8] = compound at a concentration of 500 nM or 1 mM (not specified), cells shown as percentage

SMILES: Cc1ccoc1C(=O)N1CCC(CC(=O)Nc2ccc3cc2CCc2cncc(c2)Nc2ncc(Cl)c(n2)N3)CC1 [Example A161, N-[6-Chloro-2,4,8,18,22-pentaazatetracyclo[14.3.1.1(3,7).1(9,13)]docosa-1(20),3(22),4,6,9(21),10,12,16,18-nonaen-12-yl]-2-[1-(3-methyl-2-furoyl)piperidin-4-yl]acetamide bis(trifluoroacetate)]
IC50 [1, 5]: 300 nM
IC50 [2, 6]: 15 nM
ALK % of inhibition at a concentration of 500 nM or 1 mM [3, 7]: 27%

SMILES: Nc1nonc1C(=O)N1CCC(CC(=O)Nc2ccc3cc2CCc2cncc(c2)Nc2ncc(Cl)c(n2)N3)CC1 [Example A167, 2-{1-[(4-Amino-1,2,5-oxadiazol-3-yl)carbonyl]piperidin-4-yl}-N-[6-chloro-2,4,8,18,22-pentaazatetracyclo[14.3.1.1(3,7).1(9,13)]docosa-1(20),3(22),4,6,9(21),10,12,16,18-nonaen-12-yl]acetamide tris(trifluoroacetate)]
IC50 [1, 5]: 59 nM
IC50 [2, 6]: 0.6 nM
ALK % of inhibition at a concentration of 500 nM or 1 mM [3, 7]: 33%

SMILES: Cc1nonc1C(=O)N1CCC(CC(=O)Nc2ccc3cc2CCc2cncc(c2)Nc2ncc(Cl)c(n2)N3)CC1 [Example A166, N-[6-Chloro-2,4,8,18,22-pentaazatetracyclo[14.3.1.1(3,7).1(9,13)]docosa-1(20),3(22),4,6,9(21),10,12,16,18-nonaen-12-yl]-2-{1-[(4-methyl-1,2,5-oxadiazol-3-yl)carbonyl]piperidin-4-yl}acetamide bis(trifluoroacetate)]
IC50 [1, 5]: 300 nM
IC50 [2, 6]: 6.5 nM
ALK % of inhibition at a concentration of 500 nM or 1 mM [3, 7]: 32%

SMILES: O=C(CC1CCN(C(=O)c2ccns2)CC1)Nc1ccc2cc1CCc1cncc(c1)Nc1ncc(Cl)c(n1)N2 [Example A168, N-[6-Chloro-2,4,8,18,22-pentaazatetracyclo[14.3.1.1(3,7).1(9,13)]docosa-1(20),3(22),4,6,9(21),10,12,16,18-nonaen-12-yl]-2-[1-(isothiazol-5-ylcarbonyl)piperidin-4-yl]acetamide bis(trifluoroacetate)]
IC50 [2, 6]: 22 nM
ALK % of inhibition at a concentration of 500 nM or 1 mM [3, 7]: 27%

SMILES: Cc1occc1C(=O)N1CCC(CC(=O)Nc2ccc3cc2CCc2cncc(c2)Nc2ncc(Cl)c(n2)N3)CC1 [Example A160, N-[6-Chloro-2,4,8,18,22-pentaazatetracyclo[14.3.1.1(3,7).1(9,13)]docosa-1(20),3(22),4,6,9(21),10,12,16,18-nonaen-12-yl]-2-[1-(2-methyl-3-furoyl)piperidin-4-yl]acetamide bis(trifluoroacetate)]
IC50 [1, 5]: 271 nM
IC50 [2, 6]: 5 nM
ALK % of inhibition at a concentration of 500 nM or 1 mM [3, 7]: 19%

SMILES: Cn1ccnc1C(=O)N1CCC(CC(=O)Nc2ccc3cc2CCc2cncc(c2)Nc2ncc(Cl)c(n2)N3)CC1 [Example A164, N-[6-Chloro-2,4,8,18,22-pentaazatetracyclo[14.3.1.1(3,7).1(9,13)]docosa-1(20),3(22),4,6,9(21),10,12,16,18-nonaen-12-yl]-2-{1-[(1-methyl-1H-imidazol-2-yl)carbonyl]piperidin-4-yl}acetamide bis(trifluoroacetate)]
IC50 [1, 5]: 175 nM
IC50 [2, 6]: 5.3 nM
ALK % of inhibition at a concentration of 500 nM or 1 mM [3, 7]: 14%

SMILES: O=C(CC1CCN(c2nccs2)CC1)Nc1ccc2cc1CCc1cncc(c1)Nc1ncc(Cl)c(n1)N2 [Example A159, N-[6-Chloro-2,4,8,18,22-pentaazatetracyclo[14.3.1.1(3,7).1(9,13)]docosa-1(20),3(22),4,6,9(21),10,12,16,18-nonaen-12-yl]-2-[1-(1,3-thiazol-2-yl)piperidin-4-yl]acetamide tris(trifluoroacetate)]
IC50 [1, 5]: 87 nM
IC50 [2, 6]: 3.6 nM
ALK % of inhibition at a concentration of 500 nM or 1 mM [3, 7]: 24%

SMILES: Cc1ccc(C(=O)N2CCC(CC(=O)Nc3ccc4cc3CCc3cncc(c3)Nc3ncc(Cl)c(n3)N4)CC2)o1 [Example A162, N-[6-Chloro-2,4,8,18,22-pentaazatetracyclo[14.3.1.1(3,7).1(9,13)]docosa-1(20),3(22),4,6,9(21),10,12,16,18-nonaen-12-yl]-2-[1-(5-methyl-2-furoyl)piperidin-4-yl]acetamide bis(trifluoroacetate)]
IC50 [1, 5]: 289 nM
IC50 [2, 6]: 8.2 nM
ALK % of inhibition at a concentration of 500 nM or 1 mM [3, 7]: 33%

SMILES: Cc1nocc1C(=O)N1CCC(CC(=O)Nc2ccc3cc2CCc2cncc(c2)Nc2ncc(Cl)c(n2)N3)CC1 [Example A165, N-[6-Chloro-2,4,8,18,22-pentaazatetracyclo[14.3.1.1(3,7).1(9,13)]docosa-1(20),3(22),4,6,9(21),10,12,16,18-nonaen-12-yl]-2-{1-[(3-methylisoxazol-4-yl)carbonyl]piperidin-4-yl}acetamide bis(trifluoroacetate)]
IC50 [1, 5]: > 1000 nM
IC50 [2, 6]: 64 nM
ALK % of inhibition at a concentration of 500 nM or 1 mM [3, 7]: 23%

SMILES: COc1ccc2cc1Nc1nc(ncc1Cl)Nc1cccc(c1)CC2 [Example A25, 6-Chloro-10-methoxy-2,4,8,22-tetraazatetracyclo[14.3.1.1(3,7).1(9,13)]docosa-1(20),3(22),4,6,9(21),10,12,16,18-nonaene trifluoroacetate]
IC50 [1, 5]: 21 nM
IC50 (TYK2): 122 nM
IC50 [2, 6]: 38 nM
IC50 ([4]; method AA1 (3 μM ATP) or AA2 (1000 μM ATP), not stated per value): 14 nM

More lines, now with the values ahead:

IC50 ([1]; Table B1): 25 nM
IC50 (TYK2; Table B1): 900 nM
IC50 ([2]; Table B1): 164 nM
IC50 [3]: > 10000 nM
SMILES: Clc1nccc(N2CCN(Cc3cc4cc(c3)Nc3nc(ncc3Cl)Nc3cccc(c3)CC4)CC2)n1 [Example B218, 6-Chloro-11-{[4-(2-chloropyrimidin-4-yl)piperazin-1-yl]methyl}-2,4,8,22-tetraazatetracyclo[14.3.1.1(3,7).1(9,13)]docosa-1(20),3(22),4,6,9(21),10,12,16,18-nonaene tris(trifluoroacetate)]

IC50 ([1]; Table B1): 601 nM
IC50 (TYK2; Table B1): 25 nM
IC50 ([2]; Table B1): 17 nM
ALK % of inhibition at a concentration of 500 nM or 1 mM [3, 8]: 22%
SMILES: Cc1oncc1C(=O)N1CC[C@H](NC(=O)Nc2ccc3cc2CCc2cncc(c2)Nc2ncc(Cl)c(n2)N3)C1 [Example B266, N-[6-Chloro-2,4,8,18,22-pentaazatetracyclo[14.3.1.1(3,7).1(9,13)]docosa-1(20),3(22),4,6,9(21),10,12,16,18-nonaen-12-yl]-N′-{(3S)-1-[(5-methylisoxazol-4-yl)carbonyl]pyrrolidin-3-yl}urea bis(trifluoroacetate)]

IC50 ([1]; Table B1): 47 nM
IC50 (TYK2; Table B1): 950 nM
IC50 ([2]; Table B1): 55 nM
IC50 [3]: > 1000 nM
SMILES: Clc1cnc2nc1Nc1cc(cc(CN3CCN(Cc4ccc(Oc5ncccn5)cc4)CC3)c1)CCc1cccc(c1)N2 [Example B193, 6-Chloro-11-({4-[4-(pyrimidin-2-yloxy)benzyl]piperazin-1-yl}methyl)-2,4,8,22-tetraazatetracyclo[14.3.1.1(3,7).1(9,13)]docosa-1(20),3(22),4,6,9(21),10,12,16,18-nonaene tris(trifluoroacetate)]

IC50 ([1]; Table B1): > 1000 nM
IC50 ([2]; Table B1): > 1000 nM
ALK % of inhibition at a concentration of 500 nM or 1 mM [3, 8]: 0%
SMILES: NC1CCN(c2ccnc(Nc3ccc4cc3CCc3cncc(c3)Nc3ncc(Cl)c(n3)N4)n2)CC1 [Example B282, N-[4-(4-Aminopiperidin-1-yl)pyrimidin-2-yl]-6-chloro-2,4,8,18,22-pentaazatetracyclo[14.3.1.1(3,7).1(9,13)]docosa-1(20),3(22),4,6,9(21),10,12,16,18-nonaen-12-amine tetrakis(trifluoroacetate)]

IC50 ([1]; Table D1): 7.7 nM
IC50 (TYK2; Table D1): 14 nM
IC50 ([2]; Table D1): 19 nM
IC50 ([4]; Table D1): 15 nM
SMILES: NC1CCN(c2ccc3cc2CCc2cccc(c2)Nc2ncc(Cl)c(n2)N3)C1 (stereo not drawn) [Example D88, 1-[6-Chloro-2,4,8,22-tetraazatetracyclo[14.3.1.1(3,7).1(9,13)]docosa-1(20),3(22),4,6,9(21),10,12,16,18-nonaen-12-yl]pyrrolidin-3-amine tris(trifluoroacetate)]

IC50 ([1]; Table D1): 15 nM
IC50 (TYK2; Table D1): 106 nM
IC50 ([2]; Table D1): 25 nM
IC50 ([4]; Table D1): 87 nM
SMILES: N#Cc1ccc(C(=O)N2CCN(c3ccc4cc3CCc3cccc(c3)Nc3ncc(Cl)c(n3)N4)CC2)cc1 [Example D95, 4-({4-[6-Chloro-2,4,8,22-tetraazatetracyclo[14.3.1.1(3,7).1(9,13)]docosa-1(20),3(22),4,6,9(21),10,12,16,18-nonaen-12-yl]piperazin-1-yl}carbonyl)benzonitrile bis(trifluoroacetate)]

IC50 ([1]; Table D1): 9.8 nM
IC50 (TYK2; Table D1): 13 nM
IC50 ([2]; Table D1): 4.7 nM
IC50 ([4]; Table D1): 104 nM
SMILES: O=C(C[C@@H]1CCCNC1)Nc1ccc2cc1CCc1cccc(c1)Nc1ncc(Cl)c(n1)N2 [Example D192, N-[6-Chloro-2,4,8,22-tetraazatetracyclo[14.3.1.1(3,7).1(9,13)]docosa-1(20),3(22),4,6,9(21),10,12,16,18-nonaen-12-yl]-2-[(3S)-piperidin-3-yl]acetamidebis(trifluoroacetate)]
